Experimental data taken from US8895752B2, “Alkylsulfonyl-substituted thiazolide compounds” (priority 2007, dated 2014).
Where “and” joins values, the source holds several entries; their conditions need not be identical. Equal values may be shown once. Read-outs that look alike come from different tables or passages of the source.

How the values were obtained:
[1] = system: HCV replicon H/FL-Neo, genotype 1a full length; experiment: HCV replicon assay in Huh7 cells containing H/FL-Neo; assay type: cell-based, Hepatitis C Virus
Method: (§1) Antiviral activity of test compounds was assessed in a 3-day assay using the stably-expressing HCV replicon cell line, AVA5 (sub-genomic CON1, genotype 1b) (Blight et al., 2000) maintained as sub-confluent cultures on 96-well plates as previously described (Okuse et al., 2005). Antiviral activity was determined by blot hybridization analysis of intracellular HCV RNA (normalized to the level of cellular B-actin RNA in each culture sample) and cytotoxicity was assessed by neutral red dye uptake after 3 days of treatment. Additional studies were performed using Huh7 cells containing another HCV replicon, H/FL-Neo, a genotype 1a full length construct (Blight et al., 2003). For studies involving human serum, standard culture medium (which contains 10% fetal bovine serum) and assay conditions were maintained.
(§2) EC50, EC90 and CC50 values (±standard deviations [S.D.]) were calculated by linear regression analysis using data combined from all treated cultures (Korba and Gerin, 1992; Okuse et al., 2005). […] Selectivity index (S.I.) was calculated as CC50/EC90 for HBV assays and CC50/EC50 for HCV assays. EC90 values were used for calculation of the S.I. in HBV assays since at least a […] depression of HBV DNA levels is typically required to achieve statistical significance in this assay system (Korba and Gerin, 1992). For combination treatments, EC50, EC90, CC50 and S.I. are presented for the first compound listed. The molar ratio of the compounds in each combination is also indicated.

[2] = system: AVA5 cells; experiment: Cytotoxicity by neutral red dye uptake in AVA5 cells; assay type: cell-based; conditions: Genotype 1b replicon, 3 days
[3] = system: HCV replicon, sub-genomic CON1, genotype 1b; experiment: 3-day HCV replicon assay in AVA5 cells (intracellular HCV RNA, blot hybridization); assay type: cell-based, Hepatitis C Virus
Method: as §1, §2

[4] = system: HBV; experiment: HBV antiviral assay in confluent 2.2.15 cell cultures (HBV DNA, quantitative blot hybridization); assay type: cell-based, Hepatitis B Virus
[5] = system: Huh7 cells containing H/FL-Neo; experiment: Cytotoxicity by neutral red dye uptake in Huh7 cells containing H/FL-Neo; assay type: cell-based; conditions: Genotype 1a replicon
[6] = system: 2.2.15 cells; experiment: Cytotoxicity by neutral red dye uptake in 2.2.15 cells; conditions: confluent 2.2.15 cultures, nine daily doses, neutral red uptake
Method: (§3) HBV antiviral assays were conducted as previous described (Korba and Gerin, 1992).
as §2

[7] = Cytotoxicity in HCV replicon cells in the presence of human serum
Method: as §1, §2
(§4) To evaluate the effect of human serum on the anti-HCV potency and cytotoxicity of TIZ, human serum was added to the culture medium at various concentrations (Table 6). […] In the below tables, RM4863 is the same as compound 6 of Table 7.

[8] = Cytotoxicity by neutral red dye uptake in AVA5 cells; assay type: cell-based; conditions: human, AVA5 cells (HCV replicon, sub-genomic CON1), Genotype 1b replicon
[9] = system: cytochrome P450 enzymes; conditions: cited from earlier work
[10] = cited from earlier work
[11] = system: HCV replication; experiment: HCV replicon assay in the presence of human serum; assay type: cell-based; conditions: Hepatitis C virus
Method: as §1, §2, §4

[12] = Cytotoxicity by neutral red dye uptake in Huh7 cells containing H/FL-Neo; assay type: cell-based; conditions: human; Genotype 1a replicon
[13] = Cytotoxicity by neutral red dye uptake in 2.2.15 cells; conditions: human
Method: as §3, §2

[14] = Genotype 1b replicon, 3 days, first compound listed for combinations
[15] = Hepatitis C virus, Huh-7, Genotype 1a replicon

Compound: O=C(Nc1ncc(Br)s1)c1ccccc1O [RM4832]
- antiviral activity against full length genotype 1a replicon compared with AVA5 cells (genotype 1b) [1]: equivalent
- EC50 ([1]; Genotype 1a replicon): 2.8 ± 0.3 µM
- EC90 ([1]; Genotype 1a replicon): 9.4 ± 1.1 µM
- CC50 [2]: 98 ± 3.2 µM
- EC50 [3, 14]: 4.9 ± 0.5 µM
- EC90 [3, 14]: 20 ± 1.9 µM
- activity against HCV ([3]; among the other thiazolides): exhibited activity
- EC50 ([4]; 2.2.15 cells, nine daily doses, read-out: Extracellular virion DNA EC50): 1.2 ± 0.1 µM
- EC90 ([4]; 2.2.15 cells, nine daily doses, read-out: Extracellular virion DNA EC90): 4 ± 0.3 µM
- EC50 ([4]; 2.2.15 cells, nine daily doses, read-out: Intracellular HBV RI EC50): 2.9 ± 0.3 µM
- EC90 ([4]; 2.2.15 cells, nine daily doses, read-out: Intracellular HBV RI EC90): 8.7 ± 1 µM
- CC50 [5]: 88 ± 2.1 µM
- CC50 [6]: > 100 µM

Compound: O=C(Nc1ncc([N+](=O)[O-])s1)c1ccccc1O [TIZ, tizoxanide]
- antiviral activity against full length genotype 1a replicon compared with AVA5 cells (genotype 1b) [1]: equivalent
- Selectivity Index ([1]; Genotype 1a replicon, CC50/EC50): 56
- EC50 [1, 15]: 0.25 ± 0.03 µM
- EC90 [1, 15]: 1 ± 0.1 µM
- CC50 at 3 days ([7]; CC50, human serum 0 %): 28 ± 0.9 µM
- CC50 at 3 days ([7]; CC50, human serum 2.5 %): 65 ± 1.4 µM
- CC50 at 3 days ([7]; CC50, human serum 5 %): 97 ± 3.9 µM
- CC50 at 3 days ([7]; CC50, human serum 10 %): > 100 µM
- CC50 at 3 days ([7]; CC50, human serum 15 %): > 100 µM
- CC50 at 3 days ([7]; CC50, human serum 20 %): > 100 µM
- CC50 at 3 days ([7]; CC50, human serum 30 %): > 100 µM
- CC50 at 3 days [8]: 15 ± 1.2 µM
- Selectivity Index ([3]; Genotype 1b replicon, CC50/EC50): 100
- inhibition of cytochrome P450 enzymes [9]: does not inhibit
- Selectivity Index Virion ([4]; CC50/EC90, extracellular virion DNA): >172
- Selectivity Index RI ([4]; CC50/EC90, intracellular HBV RI): >83
- EC50 ([4]; Hepatitis B virus, read-out: Intracellular HBV RI EC50): 0.46 ± 0.05 µM
- EC50 ([4]; Hepatitis B virus, 2.2.15 cells, nine daily doses, read-out: Extracellular virion DNA EC50): 0.15 ± 0.02 µM
- EC90 ([4]; Hepatitis B virus, 2.2.15 cells, nine daily doses, read-out: Extracellular virion DNA EC90): 0.58 ± 0.06 µM
- EC90 ([4]; Hepatitis B virus, 2.2.15 cells, nine daily doses, read-out: Intracellular HBV RI EC90): 1.2 ± 0.2 µM
- elimination half-life from plasma ([10]; in vivo): approximately 1.5 hours
- Maximum serum concentrations ([10]; one 500 mg NTZ tablet (Alinia) orally with food): approximately 10 μg/mL and ~37 μM
- part of an oral dose that passes through the intestinal tract and is excreted in feces as TIZ ([10]; oral dose of NTZ): Approximately two-thirds
- EC50 ([11]; human serum 0 %): 0.25 ± 0.01 µM
- EC90 ([11]; human serum 0 %): 0.98 ± 0.04 µM
- EC50 ([11]; human serum 2.5 %): 0.48 ± 0.02 µM
- EC90 ([11]; human serum 2.5 %): 1.1 ± 0.1 µM
- EC50 ([11]; human serum 5 %): 0.64 ± 0.05 µM
- EC90 ([11]; human serum 5 %): 2.3 ± 0.1 µM
- EC50 ([11]; human serum 10 %): 1.1 ± 0.1 µM
- EC90 ([11]; human serum 10 %): 3 ± 0.2 µM
- EC50 ([11]; human serum 15 %): 2.7 ± 0.3 µM
- EC90 ([11]; human serum 15 %): 15 ± 2 µM
- EC50 ([11]; human serum 20 %): 9.4 ± 0.8 µM
- EC90 ([11]; human serum 20 %): 27 ± 2.2 µM
- EC50 ([11]; human serum 30 %): 9.3 ± 0.9 µM
- EC90 ([11]; human serum 30 %): 32 ± 3 µM
- CC50 at 3 days [12]: 14 ± 0.2 µM
- CC50 at 9 days [13]: > 100 µM
